Source: ChEMBL document CHEMBL3044554, “Comparison of Phytotoxicities between 4-Fluorinated and Non-fluorinated 2-Chloro-5-(3, 4, 5, 6-tetrahydrophthalimido)benzoates” (J Pestic Sci, 1999)

Tests used:
Details in all cases: read-out: pI50 (converted)
Scenedesmus acutus [1] = test: Peroxidizing phytotoxicity against Scenedesmus acutus assessed as ethane production after 20 hr; assay type: functional, organism-based
Scenedesmus acutus [2] = test: Growth inhibition of Scenedesmus acutus assessed as changes in packed cell volume; assay type: functional, organism-based
Scenedesmus acutus [3] = test: Phytotoxicity against Scenedesmus acutus assessed as reduction in chlorophyll content by spectroscopy; assay type: functional, organism-based
[4] = molecular target: T1, Protoporphyrinogen IX oxidase (Zea mays, UniProt Q9FYV8); test: Inhibition of protoporphyrinogen IX oxidase in Zea mays cv. Anjou (maize) seedlings homogenates assessed as protoporphyrinogen IX formation by spectrophotometry
T1 sequence (Q9FYV8 whole entry): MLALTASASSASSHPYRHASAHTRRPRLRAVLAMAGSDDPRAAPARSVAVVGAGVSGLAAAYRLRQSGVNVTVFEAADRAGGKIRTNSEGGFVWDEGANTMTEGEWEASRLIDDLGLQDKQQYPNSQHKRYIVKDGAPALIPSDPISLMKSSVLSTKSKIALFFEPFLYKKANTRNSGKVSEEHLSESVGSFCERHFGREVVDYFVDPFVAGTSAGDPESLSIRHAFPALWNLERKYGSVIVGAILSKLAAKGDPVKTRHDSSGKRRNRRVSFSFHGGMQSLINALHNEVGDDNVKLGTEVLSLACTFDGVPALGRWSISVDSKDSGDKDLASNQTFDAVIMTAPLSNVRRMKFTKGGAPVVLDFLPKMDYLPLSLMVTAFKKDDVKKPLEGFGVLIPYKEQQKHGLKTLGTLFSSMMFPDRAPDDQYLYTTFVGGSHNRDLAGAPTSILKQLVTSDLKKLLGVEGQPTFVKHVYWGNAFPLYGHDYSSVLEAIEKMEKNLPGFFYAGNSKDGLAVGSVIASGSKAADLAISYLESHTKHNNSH

SMILES	IC50 (Scenedesmus acutus [1]) [nM]	IC50 (Scenedesmus acutus [2]) [nM]	IC50 (Scenedesmus acutus [3]) [nM]	IC50 [4] [nM]
C#CCOc1cc(N2C(=O)C3=C(CCCC3)C2=O)ccc1Cl	537	100	79.4	
C#CCOc1cc(N2C(=O)C3=C(CCCC3)C2=O)c(F)cc1Cl	141	15.8	15.8	1.82
O=C1C2=C(CCCC2)C(=O)N1c1ccc(Cl)cc1F	240	37.2	24.5	3.72
O=C(O)c1cc(N2C(=O)C3=C(CCCC3)C2=O)c(F)cc1Cl	3160	1000	759	380
COC(=O)c1cc(N2C(=O)C3=C(CCCC3)C2=O)c(F)cc1Cl	170	67.6	110	11.2
CCOC(=O)c1cc(N2C(=O)C3=C(CCCC3)C2=O)c(F)cc1Cl	87.1	57.5	100	4.17
CCCOC(=O)c1cc(N2C(=O)C3=C(CCCC3)C2=O)c(F)cc1Cl	66.1	33.1	89.1	3.89
CC(C)OC(=O)c1cc(N2C(=O)C3=C(CCCC3)C2=O)c(F)cc1Cl	89.1	13.8	57.5	1.38
CCCCOC(=O)c1cc(N2C(=O)C3=C(CCCC3)C2=O)c(F)cc1Cl	141	126	67.6	8.91
CC(C)COC(=O)c1cc(N2C(=O)C3=C(CCCC3)C2=O)c(F)cc1Cl	407	100	33.1	4.9
CCC(C)OC(=O)c1cc(N2C(=O)C3=C(CCCC3)C2=O)c(F)cc1Cl (configuration not stated)	74.1	60.3	24.5	2.63
O=C(O)c1cc(N2C(=O)C3=C(CCCC3)C2=O)ccc1Cl	> 100000	> 100000	> 100000	1860
COC(=O)c1cc(N2C(=O)C3=C(CCCC3)C2=O)ccc1Cl	1620	1780	2000	8.91
CCOC(=O)c1cc(N2C(=O)C3=C(CCCC3)C2=O)ccc1Cl	2140	1910	1380	3.72
CCCOC(=O)c1cc(N2C(=O)C3=C(CCCC3)C2=O)ccc1Cl	661	1120	1860	2.19
CC(C)OC(=O)c1cc(N2C(=O)C3=C(CCCC3)C2=O)ccc1Cl	182	1230	1000	
CCCCOC(=O)c1cc(N2C(=O)C3=C(CCCC3)C2=O)ccc1Cl	7760	6310	3550	9.12
CC(C)COC(=O)c1cc(N2C(=O)C3=C(CCCC3)C2=O)ccc1Cl	15500	977	759	4.79
CCC(C)OC(=O)c1cc(N2C(=O)C3=C(CCCC3)C2=O)ccc1Cl (configuration not stated)	9770	1100	794	2.51
CC(C)(C)OC(=O)c1cc(N2C(=O)C3=C(CCCC3)C2=O)ccc1Cl	> 100000	81300	12900	28.2
CCCCCOC(=O)c1cc(N2C(=O)C3=C(CCCC3)C2=O)ccc1Cl	5370	4470	9330	7.59
CCCCCCCCOC(=O)c1cc(N2C(=O)C3=C(CCCC3)C2=O)ccc1Cl	> 100000	> 100000	> 100000	25.1
COC(=O)c1cc(Oc2ccc(C(F)(F)F)cc2Cl)ccc1[N+](=O)[O-] [ACIFLUORFEN-METHYL]	23.4	70.8	61.7	2.19
O=C(O)c1cc(Oc2ccc(C(F)(F)F)cc2Cl)ccc1[N+](=O)[O-] [ACIFLUORFEN]	1020	5750	1860	200
O=C1C2=C(CCCC2)C(=O)N1c1ccc(Cl)cc1 [CHLOROPHTHALIUM]	912	100	79.4	
